Six molecules from ChEMBL document CHEMBL3044529, “7-Hydroxy-coumarin derivatives: synthesis, characterization and preliminary antimicrobial activities” (2011) can be followed below.

What is called MIC is the least concentration at which growth counts as inhibited.

Common to all, as to type: functional
One assay deals with Cryptococcus neoformans. Nature of the assay: Antimicrobial activity against Cryptococcus neoformans by macro dilution test.
The next assay concerns Candida albicans. Nature of the assay: Antimicrobial activity against Candida albicans by macro dilution test.
The subject of another assay is Pichia kudriavzevii. In words: Antimicrobial activity against Pichia kudriavzevii by macro dilution test.
The next assay concerns Candida parapsilosis. In words: Antimicrobial activity against Candida parapsilosis by macro dilution test. The conditions noted are these: Lodderomyces parapsilosis.
In another assay the test system is Bacillus subtilis. In words: Antimicrobial activity against Bacillus subtilis by macro dilution test.
The test system of the next assay is Salmonella typhimurium. In words: Antimicrobial activity against Salmonella enterica subsp. enterica serovar Typhimurium by macro dilution test.
The next assay concerns Pseudomonas aeruginosa. Nature of the assay: Antimicrobial activity against Pseudomonas aeruginosa by macro dilution test.
For the next assay, the system named is Escherichia coli. In words: Antimicrobial activity against Escherichia coli by macro dilution test.
The test system of the next assay is Streptococcus pyogenes. Nature of the assay: Antimicrobial activity against Streptococcus pyogenes by macro dilution test.
The subject of the next assay is Staphylococcus aureus. In words: Antimicrobial activity against Staphylococcus aureus by macro dilution test.

Structures are written as SMILES. Converted amounts (≈) assume the structure as drawn.

As to `OC(Cn1cncn1)(Cn1cncn1)c1ccc(F)cc1F` [FLUCONAZOLE], the minimum inhibitory concentration (MIC) against Cryptococcus neoformans came to 8 mg/L (≈ 26.1 µM); in the assay with Candida albicans, 1 mg/L (≈ 3.27 µM); in the assay with Pichia kudriavzevii, 64 mg/L (≈ 209 µM); against Candida parapsilosis, 8 mg/L (≈ 26.1 µM).

For the molecule `CCCCCC[C@@H](O)C/C=C\CCCCCCCC(=O)Oc1ccc2ccc(=O)oc2c1`, the minimum inhibitory concentration (MIC) was found to be 64 mg/L (≈ 145 µM) in the assay with Bacillus subtilis; 16 mg/L (≈ 36.2 µM) in the assay with Cryptococcus neoformans; 64 mg/L (≈ 145 µM) against Salmonella typhimurium; 128 mg/L (≈ 289 µM) in the assay with Pseudomonas aeruginosa; 64 mg/L (≈ 145 µM) in the assay on Escherichia coli; 4 mg/L (≈ 9.04 µM) against Candida albicans. The minimal inhibitory concentration (MIC) in the assay with Streptococcus pyogenes was determined as 64 mg/L (≈ 145 µM); against Staphylococcus aureus, 32 mg/L (≈ 72.3 µM); in the assay with Pichia kudriavzevii, 256 mg/L (≈ 578 µM); against Candida parapsilosis, 16 mg/L (≈ 36.2 µM).

For `CCCCC/C=C\CC[C@H](O)CCCCCCCC(=O)Oc1ccc2ccc(=O)oc2c1`, the minimal inhibitory concentration (MIC) was 64 mg/L (≈ 145 µM) in the assay with Bacillus subtilis; 8 mg/L (≈ 18.1 µM) against Cryptococcus neoformans; 64 mg/L (≈ 145 µM) with Salmonella typhimurium; 128 mg/L (≈ 289 µM) in the assay on Pseudomonas aeruginosa; 32 mg/L (≈ 72.3 µM) against Escherichia coli; 2 mg/L (≈ 4.52 µM) in the assay with Candida albicans. The MIC with Streptococcus pyogenes came out at 32 mg/L (≈ 72.3 µM); against Staphylococcus aureus, 32 mg/L (≈ 72.3 µM); against Pichia kudriavzevii it was 256 mg/L (≈ 578 µM); with Candida parapsilosis, 16 mg/L (≈ 36.2 µM).

Consider `C=CCCCCCCCCC(=O)Oc1ccc2ccc(=O)oc2c1`, for which the minimum inhibitory concentration (MIC) against Bacillus subtilis was determined as 64 mg/L (≈ 195 µM); against Cryptococcus neoformans, 16 mg/L (≈ 48.7 µM); against Salmonella typhimurium, 64 mg/L (≈ 195 µM); in the assay with Pseudomonas aeruginosa, 128 mg/L (≈ 390 µM); in the assay on Escherichia coli, 128 mg/L (≈ 390 µM); with Candida albicans, 4 mg/L (≈ 12.2 µM). The minimal inhibitory concentration (MIC) against Streptococcus pyogenes stood at 64 mg/L (≈ 195 µM); in the assay on Staphylococcus aureus, 128 mg/L (≈ 390 µM); in the assay on Pichia kudriavzevii, 256 mg/L (≈ 780 µM); against Candida parapsilosis, 32 mg/L (≈ 97.4 µM).

As to `CCCCCCCC/C=C\CCCCCCCC(=O)Oc1ccc2ccc(=O)oc2c1`, the MIC came out at 64 mg/L (≈ 150 µM) with Bacillus subtilis; 32 mg/L (≈ 75 µM) in the assay on Cryptococcus neoformans; 128 mg/L (≈ 300 µM) in the assay with Salmonella typhimurium; 128 mg/L (≈ 300 µM) with Pseudomonas aeruginosa; 128 mg/L (≈ 300 µM) in the assay with Escherichia coli; 8 mg/L (≈ 18.8 µM) against Candida albicans. Also, the minimal inhibitory concentration (MIC) was 128 mg/L (≈ 300 µM) in the assay with Streptococcus pyogenes, 128 mg/L (≈ 300 µM) in the assay on Staphylococcus aureus, 512 mg/L (≈ 1200 µM) against Pichia kudriavzevii and 64 mg/L (≈ 150 µM) against Candida parapsilosis.

Turning to `O=C(N[C@H](CO)[C@H](O)c1ccc([N+](=O)[O-])cc1)C(Cl)Cl` [CHLORAMPHENICOL], the MIC in the assay on Bacillus subtilis amounted to 32 mg/L (≈ 99 µM); against Salmonella typhimurium it was 32 mg/L (≈ 99 µM); in the assay on Pseudomonas aeruginosa, 64 mg/L (≈ 198 µM); in the assay on Escherichia coli, 32 mg/L (≈ 99 µM); against Streptococcus pyogenes it was 32 mg/L (≈ 99 µM); in the assay with Staphylococcus aureus, 32 mg/L (≈ 99 µM).
